{
  "source": "patent US8716249B2",
  "about": "“Compositions and methods for improving cardiovascular health” (Energy Light LLC, priority 2008, dated 2014)",
  "key": {"[1]": {"assay": "Comparison of EAA+arginine with fenofibrate in a similar population of elderly (FIG. 2)"}, "[2]": {"settings": "cited from earlier work"}, "[3]": {"settings": "patients with mixed hyperlipidemia, 80 mg atorvostatin daily or 200 mg fenofibrate"}},
  "note": "Where two headings read alike, the source gives them in different places.",
  "data": [
    {"smiles": "CC(C)OC(=O)C(C)(C)Oc1ccc(C(=O)c2ccc(Cl)cc2)cc1", "note": "[fenofibrate]", "values": [
      {"measurement": "fall of plasma triglyceride concentration", "setting": "[1]; fenofibrate treatment for 60 days", "value": "approximately 33%"},
      {"measurement": "effect on liver triglyceride", "setting": "[1]; treatment for 60 days", "value": "no significant effect"}
    ]},
    {"smiles": "Cc1ccc(C)c(OCCCC(C)(C)C(=O)O)c1", "note": "[gemfibrozil]", "values": [
      {"measurement": "time to maximal effects on TG", "setting": "[2]; gemfibrozil treatment", "value": "≤ 4", "unit": "weeks"},
      {"measurement": "decrease of TG concentrations", "setting": "[2]; patients with hypertryglyceridemia and hypercholesterolemia", "value": 45, "unit": "%"},
      {"measurement": "decrease of TG concentrations", "setting": "[2]; patients with isolated hypercholesterolemia", "value": 38, "unit": "%"}
    ]},
    {"smiles": "CC(C)c1c(C(=O)Nc2ccccc2)c(-c2ccccc2)c(-c2ccc(F)cc2)n1CC[C@@H](O)C[C@@H](O)CC(=O)O", "note": "[atorvostatin]", "values": [
      {"measurement": "reduction of TGs", "setting": "[2]; [3]", "value": 65, "unit": "%"},
      {"measurement": "reduction of VLDL", "setting": "[2]; [3]", "value": 57, "unit": "%"}
    ]}
  ]
}
